# Assay results taken from US11077139B2, “Combination of an arsenic compound and at least one retinoid for treating acute myeloid leukemia” (INSERM (Institut National de la Sante et de la Recherche …, priority 2013, dated 2021).
# How the values were obtained:
# mutant NPM-1 = experiment: Western blot for NPM-1 and mutated NPM-1; assay type: cell-based
# Experimental: Cells were solubilized at 4° C. in lysis buffer. […] Blots were incubated with specific antibodies, washed and proteins were visualized using the ECL chemiluminescence system (Santa Cruz, Germany). The following antibodies were used; monoclonal anti-wt NPM-1 (Abnova, Abcam), polyclonal anti-mutated NPM-1 (Abnova), anti-actin (Santa-cruz, Germany) and anti-GAPDH (Abnova).
# [1] = tested on: OCI-AML3 cells (mutated NPM-1); assay type: cell-based; settings: addition of the proteasome inhibitor
# Experimental: Cells were seeded at a density of 2×10^5/ml. Primary AML cells (from either peripheral blood or BM) were extracted following ficoll separation and cultured in MEM-α supplemented with 20% FBS and antibiotics. […] Cell growth was assessed using the CellTiter 96® cell proliferation assay kit (Promega Corp., Madison, Wis., USA) or by trypan blue dye assay.
# Proliferation experiments on cell lines were repeated at least three times. Data are reported as the mean+/−standard error. […] CI was used to assess synergistic effects (CI<1), additive effects (CI=1) or antagonistic effects (CI>1). Two statistical tests were performed to validate significance: the t-test and the one-way analysis of variance (ANOVA) test. *, ** and *** indicate p values≤0.05; 0.01 and 0.001, respectively. p-values less than 0.05 were considered significant.
Compound,effect of pre-treatment on arsenic-induced degradation of mutant NPM-1 (mutant NPM-1; data not shown),effect on RA/arsenic-induced NPM-1 degradation (mutant NPM-1; addition of the proteasome inhibitor),effect on RA/arsenic-induced growth arrest [1]
interferon alpha,significantly accelerated,,
CC(C)C[C@H](NC(=O)[C@H](Cc1ccccc1)NC(=O)c1cnccn1)B(O)O [PS-341],,reversed,reversed
